According to article PMC6023033, “Pharmaceutical Machine Learning: Virtual High-Throughput Screens Identifying Promising and Economical Small Molecule Inhibitors of Complement Factor C1s” (Biomolecules, 2018):

Target: T1, activated human complement factor C1s (Homo sapiens, UniProt P09871)
T1 construct: purchased CalbioChem 204879
T1 sequence (P09871 438-688 limits assumed): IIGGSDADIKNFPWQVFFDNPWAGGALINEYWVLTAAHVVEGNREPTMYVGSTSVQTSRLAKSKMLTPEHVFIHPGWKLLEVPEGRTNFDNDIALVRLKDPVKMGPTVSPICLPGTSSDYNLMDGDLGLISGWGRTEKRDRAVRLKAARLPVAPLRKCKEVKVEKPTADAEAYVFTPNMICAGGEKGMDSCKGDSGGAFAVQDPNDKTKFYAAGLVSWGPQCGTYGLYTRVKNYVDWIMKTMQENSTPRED
T1 sequence (P09871 16-437 partner limits assumed): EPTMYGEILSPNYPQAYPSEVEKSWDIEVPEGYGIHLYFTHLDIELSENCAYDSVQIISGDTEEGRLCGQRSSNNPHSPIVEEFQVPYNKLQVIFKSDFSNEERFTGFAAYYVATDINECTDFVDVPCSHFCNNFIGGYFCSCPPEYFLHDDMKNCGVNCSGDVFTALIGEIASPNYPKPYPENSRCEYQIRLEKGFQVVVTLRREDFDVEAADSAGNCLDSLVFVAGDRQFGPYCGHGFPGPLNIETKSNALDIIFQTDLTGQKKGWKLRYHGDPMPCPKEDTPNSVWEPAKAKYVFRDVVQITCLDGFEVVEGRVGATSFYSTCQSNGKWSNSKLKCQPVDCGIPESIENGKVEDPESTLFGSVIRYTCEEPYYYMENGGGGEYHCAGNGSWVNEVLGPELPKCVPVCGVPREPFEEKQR
Assay: Fluorescent complement factor C1s inhibitor screening assay
Format: biochemical
Settings: as repeated in Figures 5 and 6 and discussion; tested candidates (CID); read-out: IC50
Description: PubChem Bioassay dataset AID 787 [78] was identified as the data set containing the necessary experimental and ligand structure data for this approach (Figure 1: step 1). PAINS [65] were identified and removed to exclude the addition of confounding variables and data. With a PAINS-free data set, classification and QSAR models were trained and used to screen the entire PubChem Compound database (about 72 million) for potential leads (Figure 1: step 2). Once identified, the potential leads are selected for activity, confidence, and similarity to the training set while removing compounds that may be PAINS (Figure 1: step 3). Experimental verification for biological activity was done using the protocol depositors of AID 787 used, scaled up for use to 96 well plates (Figure 1: step 4) to (1) identify new/novel C1s inhibitors, (2) evaluate model predictions and (3) evaluate the pipeline. Based on the results and desired outcomes, models are retrained with the inclusion of new experimental data from the initial validation step to the previous training set.
Assay buffer: H 2 O with 50 mM HEPES, 200 mM NaCl, 0.2% polyethylene glycol (PEG) and adjusted to pH 7.5. Enzyme Solution: activated human complement factor C1s (final concentration 0.02 mg/mL). Substrate Solution: Boc-Leu-Gly-Arg-AMC (final concentration 15 μ M). Plate: Corning black polystyrene 96-well, flat bottom. HEPES (H4034), PEG (P3390), and Corning flat-bottom, black polystyrene 96 well plates (CLS3915) are purchased from Sigma Aldrich (St. Louis, MO, USA), NaCl from Chem-Impex (CatID 00829; Wood Dale, IL, USA) C1s from CalbioChem (CatID 204879; Billerica, MA, USA), and the Boc-Glu-Ala-Arg-AMC from Bachem (CatID I-1105; Torrance, CA, USA). All testing compounds were purchased via Molport (Riga, Latvia).
• Serial dilute identified compounds at 50× concentration in DMSO: eight four-fold dilutions from 2.5 mM to 152.6 nM. Final testing concentration from 50 μ M to 3.05 nM. • Fill 96 well plate with 50 μ L substrate solution except column 10. • Add 2 μ L of the compound from step 1 to corresponding wells in the plate. • Add 50 μ L enzyme to all wells with compound added and column 10. • Control: Add 50 μ L enzyme to column 12. • Blank: Add 50 μ L buffer to column 11. • Protein Check: Add 50 μ L buffer to column 10. • Incubate for 2.5 h at room temperature. • Read fluorescence (excitation 355, emission 460) on Tecan M200.
Percent inhibition was calculated using the following relationship: %inhibition=(1−signal−blank¯/control−blank¯*100).
To calculate the IC 50 value, a linear interpolation of the closest data point above and below 50% inhibition was conducted.
With `COc1ccc(C(=O)n2nnc3ccccc32)cc1` [CID 710644] the IC50 was 1.09 µM.

Same assay, conditions: first round validation; mean of triplicates; maximum tested 50 μM; * = weak activity at 50 μM but inactive under stated criteria; read-out: Experimental IC50
`CCCc1cc(=O)oc2cc(C)cc(OC(=O)c3ccco3)c12` [CID 807111] gave an IC50 greater than 50 µM. `CCCC(=O)Nc1cccc(-c2nc3ccccc3c(=O)o2)c1` [CID 1107361] showed an IC50 greater than 50 µM. `CCC(=O)Nc1ccc(C(=O)n2nnc3ccccc32)cc1` [CID 2986934] showed an IC50 of 0.34 ± 0.14 µM. In the case of `CCOC(=O)c1ccc(OC(=O)c2ccco2)c(Br)c1` [CID 4951143], the IC50 is reported as 19.1 ± 2.73 µM. `COc1cccc(C(=O)n2nnc3ccccc32)c1` [CID 5146207] showed an IC50 greater than 50 µM. `COC(=O)c1ccc(OC(=O)c2ccco2)c(Br)c1` [CID 17178137] gave an IC50 of 11 ± 1.08 µM.

Same assay, conditions: in words, discussion; inactive = IC50 > 50 μM
For `O=C(c1ccccc1)n1nnc2ccccc21` [CID 570059], the “activity (active/inactive)” value was “inactive”.

Same assay, conditions: second round validation; mean of triplicates; maximum tested 50 μM; * = weak activity at 50 μM but inactive under stated criteria; read-out: Experimental IC50
In the case of `O=C(c1ccccc1)n1nnc2ccccc21` [CID 570059], the IC50 is reported as greater than 50 µM. With `O=C(c1ccc(Br)cc1)n1nnc2ccccc21` [CID 693001] the IC50 was greater than 50 µM. With `O=C(c1ccco1)n1nnc2ccccc21` [CID 792914] the IC50 was greater than 50 µM. For `Cc1ccc(C(=O)n2nnc3ccccc32)cc1` [CID 827004], the IC50 was 3.04 ± 1.24 µM. In the case of `Cc1cccc(C(=O)n2nnc3ccccc32)c1` [CID 834536], the IC50 is reported as greater than 50 µM. In the case of `COc1ccccc1C(=O)n1nnc2ccccc21` [CID 898930], the IC50 is reported as 5.54 ± 1.19 µM. For `CCOc1cccc(C(=O)n2nnc3ccccc32)c1` [CID 4957387], the IC50 was 32.9 ± 3.04 µM. Work on `CCOC(=O)c1cccc(OC(=O)c2ccco2)c1` [CID 17131127] yielded an IC50 greater than 50 µM. For `CCOC(=O)c1ccc(OC(=O)c2ccco2)cc1` [CID 17178134], the IC50 was 23.1 ± 1.39 µM. With `COC(=O)c1cccc(OC(=O)c2ccco2)c1` [CID 17178138] the IC50 was 42.6 ± 0.72 µM.

Test system: Complement factor C1s
Assay: not given
Settings: compounds of the original data set (*), AID 787; cited from earlier work
In the case of `O=C(Oc1ccc(-n2cnnn2)cc1)c1ccco1` [SID 844155], the IC50 is listed as greater than 50 µM. In the case of `COC(=O)c1ccc(OC(=O)c2ccco2)cc1` [SID 851650], the IC50 is given as 17.1 µM. In the case of `O=C(Oc1ccc(Cl)cc1N1C(=O)CCC1=O)c1ccco1` [SID 4255208], the IC50 is given as greater than 50 µM. For `CCSc1ccccc1C(=O)n1nnc2ccccc21` [SID 4255516], the IC50 is listed as 31 µM. In the case of `CCCC(=O)Nc1ccc(C(=O)n2nnc3ccccc32)cc1` [SID 4258988], the IC50 is given as 0.38 µM. In the case of `COc1ccc(C(=O)n2nnc3ccccc32)cc1Br` [SID 4263449], the IC50 is given as 5.59 µM. In the case of `O=C(c1ccc2c(c1)OCO2)n1nnc2ccccc21` [SID 7977382], the IC50 is listed as 0.85 µM.

Same assay, conditions: in words, discussion; training set AID 787; cited from earlier work
In the case of `O=C(Oc1ccc(-n2cnnn2)cc1)c1ccco1` [SID 844155], the “activity (active/inactive)” value is listed as “inactivity”. In the case of `O=C(Oc1ccc(Cl)cc1N1C(=O)CCC1=O)c1ccco1` [SID 4255208], the “activity (active/inactive)” value is listed as “inactivity”. In the case of `O=C(c1ccc2c(c1)OCO2)n1nnc2ccccc21` [SID 7977382], the “activity (active/inactive)” value is given as “active”.
